“And” between values parts separate entries of the source, which are not always exact repeats. Equal entries are not always repeated.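 Exposure lasted 48 hours, with cells grown in 96-well plates and compounds tested at five concentrations. The concentration for 50% growth inhibition is given as GI50.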 The source made the active and inactive calls. No stated cut-off is given here; in the data, active = GI50 up to about 1.1 µM and inactive = higher.
Columns and labels:
Experiment in all cases: NCI anticancer screen, dose series, 48 h
786-0 = test system: 786-0
A498 = test system: A498
A549 = test system: A549
ACHN = test system: ACHN
BT-549 = test system: BT-549
CAKI-1 = test system: CAKI-1
CCRF-CEM = test system: CCRF-CEM
COLO 205 = test system: COLO 205
DU-145 = test system: DU-145
EKVX = test system: EKVX
HCC 2998 = test system: HCC 2998
HCT-116 = test system: HCT-116
HCT-15 = test system: HCT-15
HL-60 = test system: HL-60
HOP-62 = test system: HOP-62
HOP-92 = test system: HOP-92
HT-29 = test system: HT-29
Hs-578T = test system: Hs-578T
IGROV-1 = test system: IGROV-1
K562 = test system: K562
KM12 = test system: KM12
LOX IMVI = test system: LOX IMVI
M14 = test system: M14
MCF7 = test system: MCF7
MDA-MB-231 = test system: MDA-MB-231
MDA-MB-435 = test system: MDA-MB-435
MDA-N = test system: MDA-N
MOLT-4 = test system: MOLT-4
Malme-3M = test system: Malme-3M
NCI-H226 = test system: NCI-H226
NCI-H23 = test system: NCI-H23
NCI-H460 = test system: NCI-H460
NCI-H522 = test system: NCI-H522
NCI/ADR-RES = test system: NCI/ADR-RES
OVCAR-3 = test system: OVCAR-3
OVCAR-4 = test system: OVCAR-4
OVCAR-5 = test system: OVCAR-5
OVCAR-8 = test system: OVCAR-8
PC-3 = test system: PC-3
RPMI-8226 = test system: RPMI-8226
RXF 393 = test system: RXF 393
SF-268 = test system: SF-268
SF-295 = test system: SF-295
SF-539 = test system: SF-539
SK-MEL-28 = test system: SK-MEL-28
SK-MEL-2 = test system: SK-MEL-2
SK-MEL-5 = test system: SK-MEL-5
SK-OV-3 = test system: SK-OV-3
SN12C = test system: SN12C
SNB-19 = test system: SNB-19
SNB-75 = test system: SNB-75
SR = test system: SR
SW-620 = test system: SW-620
T47D = test system: T47D
TK-10 = test system: TK-10
U-251 = test system: U-251
UACC-257 = test system: UACC-257
UACC-62 = test system: UACC-62
UO-31 = test system: UO-31
KM-20L2 = test system: KM-20L2

## c1ccc2c(c1)CCN1CCc3c([nH]c4ccccc34)C21 (stereo not given)
786-0
  GI50: 38.3 µM (inactive)
A498
  GI50: 22.9 µM (inactive)
A549
  GI50: 37.1 µM (inactive)
ACHN
  GI50: 31.3 µM (inactive)
BT-549
  GI50: 27.3 µM (inactive)
CAKI-1
  GI50: 30.3 µM (inactive)
CCRF-CEM
  GI50: 31.5 µM (inactive)
COLO 205
  GI50: 21.4 µM (inactive)
DU-145
  GI50: 40.6 µM (inactive)
EKVX
  GI50: 28.2 µM (inactive)
HCC 2998
  GI50: 17.2 µM (inactive)
HCT-116
  GI50: 24.2 µM (inactive)
HCT-15
  GI50: 36.9 µM
HL-60
  GI50: 13.7 µM (inactive)
HOP-62
  GI50: 36 µM (inactive)
HOP-92
  GI50: 22.2 µM (inactive)
HT-29
  GI50: 26.9 µM (inactive)
Hs-578T
  GI50: 53.2 µM (inactive)
IGROV-1
  GI50: 29.4 µM (inactive)
K562
  GI50: 20.5 µM (inactive)
KM12
  GI50: 26.5 µM (inactive)
LOX IMVI
  GI50: 22.8 µM (inactive)
M14
  GI50: 16.7 µM (inactive)
MCF7
  GI50: 63.7 µM (inactive)
MDA-MB-231
  GI50: 35.3 µM (inactive)
MDA-MB-435
  GI50: 26.7 µM (inactive)
MDA-N
  GI50: 25.1 µM (inactive)
MOLT-4
  GI50: 24.5 µM (inactive)
Malme-3M
  GI50: 18.1 µM (inactive)
NCI-H226
  GI50: 41.7 µM (inactive)
NCI-H23
  GI50: 38.8 µM (inactive)
NCI-H460
  GI50: 38.7 µM (inactive)
NCI-H522
  GI50: 34 µM (inactive)
NCI/ADR-RES
  GI50: 22.1 µM (inactive)
OVCAR-3
  GI50: 24 µM (inactive)
OVCAR-4
  GI50: 35.2 µM (inactive)
OVCAR-5
  GI50: 22.4 µM (inactive)
OVCAR-8
  GI50: 31.8 µM (inactive)
PC-3
  GI50: 26.6 µM (inactive)
RPMI-8226
  GI50: 23 µM (inactive)
RXF 393
  GI50: 21.5 µM (inactive)
SF-268
  GI50: 30.8 µM (inactive)
SF-295
  GI50: 20 µM (inactive)
SF-539
  GI50: 49 µM (inactive)
SK-MEL-28
  GI50: 19.1 µM (inactive)
SK-MEL-2
  GI50: 23 µM (inactive)
SK-MEL-5
  GI50: 15.1 µM (inactive)
SK-OV-3
  GI50: 47 µM (inactive)
SN12C
  GI50: 32.7 µM (inactive)
SNB-19
  GI50: 67.5 µM (inactive)
SNB-75
  GI50: 24.9 µM (inactive)
SR
  GI50: 24.4 µM (inactive)
SW-620
  GI50: 36.2 µM (inactive)
T47D
  GI50: 32.5 µM (inactive)
TK-10
  GI50: 42 µM (inactive)
U-251
  GI50: 34.2 µM (inactive)
UACC-257
  GI50: 24.4 µM (inactive)
UACC-62
  GI50: 31.6 µM (inactive)
UO-31
  GI50: 28.6 µM (inactive)

## COc1nc(N)c(/N=C/C(OC(C)=O)C(OC(C)=O)C(COC(C)=O)OC(C)=O)c(=O)n1C (stereo not given)
786-0
  GI50: > 100 µM (inactive)
A498
  GI50: > 100 µM (inactive)
A549
  GI50: > 100 µM (inactive)
ACHN
  GI50: > 100 µM (inactive)
BT-549
  GI50: > 100 µM (inactive)
CAKI-1
  GI50: > 100 µM (inactive)
CCRF-CEM
  GI50: > 100 µM (inactive) and 62.2 µM (inactive)
COLO 205
  GI50: > 100 µM (inactive)
DU-145
  GI50: > 100 µM (inactive)
EKVX
  GI50: > 100 µM (inactive)
HCC 2998
  GI50: > 100 µM (inactive)
HCT-116
  GI50: > 100 µM (inactive)
HCT-15
  GI50: > 100 µM
HL-60
  GI50: > 100 µM (inactive)
HOP-62
  GI50: > 100 µM (inactive)
HOP-92
  GI50: > 100 µM (inactive)
HT-29
  GI50: > 100 µM (inactive)
Hs-578T
  GI50: > 100 µM (inactive)
IGROV-1
  GI50: > 100 µM (inactive)
K562
  GI50: > 100 µM (inactive)
KM12
  GI50: > 100 µM (inactive)
LOX IMVI
  GI50: > 100 µM (inactive)
M14
  GI50: > 100 µM (inactive)
MCF7
  GI50: > 100 µM (inactive)
MDA-MB-231
  GI50: > 100 µM (inactive)
MDA-MB-435
  GI50: > 100 µM (inactive)
MDA-N
  GI50: > 100 µM (inactive)
MOLT-4
  GI50: > 100 µM (inactive)
Malme-3M
  GI50: > 100 µM (inactive)
NCI-H226
  GI50: > 100 µM (inactive)
NCI-H23
  GI50: > 100 µM (inactive)
NCI-H460
  GI50: > 100 µM (inactive)
NCI-H522
  GI50: > 100 µM (inactive)
NCI/ADR-RES
  GI50: > 100 µM (inactive)
OVCAR-3
  GI50: > 100 µM (inactive)
OVCAR-4
  GI50: > 100 µM (inactive)
OVCAR-5
  GI50: > 100 µM (inactive)
OVCAR-8
  GI50: > 100 µM (inactive)
PC-3
  GI50: > 100 µM (inactive)
RPMI-8226
  GI50: > 100 µM (inactive)
RXF 393
  GI50: > 100 µM (inactive)
SF-268
  GI50: > 100 µM (inactive)
SF-295
  GI50: > 100 µM (inactive)
SF-539
  GI50: > 100 µM (inactive)
SK-MEL-28
  GI50: > 100 µM (inactive)
SK-MEL-2
  GI50: > 100 µM (inactive)
SK-MEL-5
  GI50: > 100 µM (inactive)
SK-OV-3
  GI50: > 100 µM (inactive)
SN12C
  GI50: > 100 µM (inactive)
SNB-19
  GI50: > 100 µM (inactive)
SNB-75
  GI50: > 100 µM (inactive)
SR
  GI50: > 100 µM (inactive)
SW-620
  GI50: > 100 µM (inactive)
T47D
  GI50: > 100 µM (inactive)
TK-10
  GI50: > 100 µM (inactive)
U-251
  GI50: > 100 µM (inactive)
UACC-257
  GI50: > 100 µM (inactive)
UACC-62
  GI50: > 100 µM (inactive)
UO-31
  GI50: > 100 µM (inactive)

## CC(C)[Si]1(C(C)C)OCC2OC(n3cnc4c(N)ncnc43)C(N)C2O[Si](C(C)C)(C(C)C)O1 (stereo not given)
786-0
  GI50: 5.11 µM (inactive)
A498
  GI50: 13.9 µM (inactive)
A549
  GI50: 5.58 µM (inactive)
ACHN
  GI50: 3.44 µM (inactive)
BT-549
  GI50: 6.41 µM (inactive)
CAKI-1
  GI50: 11 µM (inactive)
CCRF-CEM
  GI50: 9.29 µM (inactive)
COLO 205
  GI50: 5.68 µM (inactive)
DU-145
  GI50: 11.9 µM (inactive)
EKVX
  GI50: 17.7 µM (inactive)
HCC 2998
  GI50: 4.79 µM (inactive)
HCT-116
  GI50: 4.14 µM (inactive)
HCT-15
  GI50: 6.9 µM
HL-60
  GI50: 3.78 µM (inactive)
HOP-62
  GI50: 17.2 µM (inactive)
HOP-92
  GI50: 11.8 µM (inactive)
HT-29
  GI50: 4.6 µM (inactive)
Hs-578T
  GI50: 11.8 µM (inactive)
IGROV-1
  GI50: 7.33 µM (inactive)
K562
  GI50: 3.51 µM (inactive)
KM12
  GI50: 4.1 µM (inactive)
LOX IMVI
  GI50: 5.75 µM (inactive)
M14
  GI50: 8.45 µM (inactive)
MCF7
  GI50: 2.55 µM (inactive)
MDA-MB-231
  GI50: 13.7 µM (inactive)
MDA-MB-435
  GI50: 6.75 µM (inactive)
MDA-N
  GI50: 6.32 µM (inactive)
MOLT-4
  GI50: 2.08 µM (inactive)
Malme-3M
  GI50: 17.8 µM (inactive)
NCI-H226
  GI50: 9.66 µM (inactive)
NCI-H23
  GI50: 9.16 µM (inactive)
NCI-H460
  GI50: 4.07 µM (inactive)
NCI-H522
  GI50: 8.04 µM (inactive)
NCI/ADR-RES
  GI50: 5.21 µM (inactive)
OVCAR-3
  GI50: 5.22 µM (inactive)
OVCAR-4
  GI50: 8.09 µM (inactive)
OVCAR-5
  GI50: 16.8 µM (inactive)
OVCAR-8
  GI50: 8.24 µM (inactive)
PC-3
  GI50: 3.16 µM (inactive)
RPMI-8226
  GI50: 2.22 µM (inactive)
RXF 393
  GI50: 8.97 µM (inactive)
SF-268
  GI50: 12 µM (inactive)
SF-295
  GI50: 3.65 µM (inactive)
SF-539
  GI50: 11.6 µM (inactive)
SK-MEL-28
  GI50: 25.9 µM (inactive)
SK-MEL-2
  GI50: 6.22 µM (inactive)
SK-MEL-5
  GI50: 2.06 µM (inactive)
SK-OV-3
  GI50: 24 µM (inactive)
SN12C
  GI50: 10.1 µM (inactive)
SNB-19
  GI50: 4.88 µM (inactive)
SNB-75
  GI50: 4.69 µM (inactive)
SR
  GI50: 2.42 µM (inactive)
SW-620
  GI50: 6.41 µM (inactive)
T47D
  GI50: 8.15 µM (inactive)
TK-10
  GI50: 10.1 µM (inactive)
U-251
  GI50: 8.32 µM (inactive)
UACC-257
  GI50: 5.73 µM (inactive)
UACC-62
  GI50: 10.1 µM (inactive)
UO-31
  GI50: 3.47 µM (inactive)

## COc1ccc(/C=C\c2cc(OC)c(OC)c(OC)c2)cc1O
BT-549
  GI50: 23.9 µM (inactive)
COLO 205
  GI50: 2.9 µM (inactive)
EKVX
  GI50: 14.7 µM (inactive)
HT-29
  GI50: 3.84 µM (inactive)
IGROV-1
  GI50: < 0.02 µM (active)
KM-20L2
  GI50: 2.01 µM (inactive)
OVCAR-5
  GI50: 5.43 µM (inactive)
TK-10
  GI50: 56.9 µM (inactive)

Source: ChEMBL document CHEMBL1201862, “PubChem BioAssay data set” (2004)
